# pIC50: −log10 of the molar value. Read-outs that look alike come from different tables or passages of the source.
# Tests used:
# [1] = system: c-Myc in MDA-MB-231 breast adenocarcinoma cells; experiment: Western blot of c-Myc in MDA-MB-231 cells; format: cell-based, human; conditions: 72 hours
# Experimental: Supplemental Figure 1. […] (A) HepG2 cells were treated with FLS- […]
# determined by western blot. Total a-tubulin was monitored as a control. (B) MDA-MB-231 cells or (C) MRC-5 fibroblasts were treated with drug for 72h and c-Myc was monitored by western blot with b-actin as a control. Western blots are representative of three independent experiments.
# (§1) (1 picture or pasted object on this page, not shown here)
# [2] = system: SARS-CoV-2 (strain USA-WA1/2020); experiment: microbe, parasite or virus in culture; conditions: Severe acute respiratory syndrome coronavirus 2, Calu-3, in Homo sapiens, read-out: IC50, SARS-CoV-2
# [3] = Host cell cytotoxicity, Akata; format: cell-based; conditions: Akata cells (Burkitt lymphoma cell line); human Akata; Epstein-Barr assay
# Experimental: The Akata Burkitt lymphoma cell line is permissive for EBV lytic reactivation through activation of the B cell receptor ([52]). As expected, 24 hours after receptor engagement with anti-IgG, 30% of Akata cells induced surface expression of the late EBV gene gp350, which serves as a proxy for cells that are replicating viral DNA and forming new virions (Figure 3A).
# HCMV TB40/E = experiment: Mouse gelfoam-fibroblast model of HCMV infection; format: in vivo, CIEA NOG mice; conditions: day 11; TCID50; FLS-359 50 mg/kg p.o. b.i.d.; valganciclovir 50 mg/kg p.o. daily; P < 0.03
# [4] = system: HCMV TB40/E-mCherry-UL99eGFP; conditions: Human betaherpesvirus 5, read-out: HCMV virus yield IC50
# [5] = system: Epstein-Barr virus (EBV; strain Akata); experiment: microbe, parasite or virus in culture; conditions: human gammaherpesvirus 4, Akata, read-out: IC50, Epstein-Barr
# recombinant human SIRT1 = molecular target: T1, recombinant human SIRT1 (Homo sapiens, UniProt Q96EB6); experiment: SIRT deacylase assay, deacetylation of Ac-H3K9WW peptide, mass spectrometry; format: biochemical; conditions: Figure 1C; n = 3
# T1 construct: purified, recombinant SIRT2^2–389, SIRT1^1–747, or SIRT3^1–400 protein (GenScript); purchased GenScript
# T1 sequence (Q96EB6 1-747): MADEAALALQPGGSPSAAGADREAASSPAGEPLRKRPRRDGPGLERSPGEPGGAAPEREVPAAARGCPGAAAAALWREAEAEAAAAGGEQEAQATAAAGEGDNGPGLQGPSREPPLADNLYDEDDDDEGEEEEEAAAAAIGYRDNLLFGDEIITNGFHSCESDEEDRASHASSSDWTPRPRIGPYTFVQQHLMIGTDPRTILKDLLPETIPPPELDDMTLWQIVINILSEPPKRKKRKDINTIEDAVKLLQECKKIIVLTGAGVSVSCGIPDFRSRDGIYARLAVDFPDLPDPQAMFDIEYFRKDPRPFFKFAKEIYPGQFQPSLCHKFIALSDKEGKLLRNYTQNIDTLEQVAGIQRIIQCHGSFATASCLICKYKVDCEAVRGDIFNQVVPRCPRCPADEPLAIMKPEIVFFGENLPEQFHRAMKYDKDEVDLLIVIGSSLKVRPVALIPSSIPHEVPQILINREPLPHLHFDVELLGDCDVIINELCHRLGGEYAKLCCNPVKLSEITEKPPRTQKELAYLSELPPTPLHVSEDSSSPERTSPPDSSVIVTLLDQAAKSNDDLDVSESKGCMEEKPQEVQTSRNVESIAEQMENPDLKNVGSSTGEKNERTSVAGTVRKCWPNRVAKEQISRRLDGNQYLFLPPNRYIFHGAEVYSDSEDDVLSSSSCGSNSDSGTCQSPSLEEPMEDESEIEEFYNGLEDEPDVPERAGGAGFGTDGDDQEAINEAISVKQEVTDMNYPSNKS
# [6] = system: Hepatitis B virus (genotype D, subtype ayw); experiment: microbe, parasite or virus in culture; conditions: Hepatocyte, read-out: IC50, Hepatitis B
# [7] = system: HCMV TB40/E-mCherry-UL99eGFP; experiment: HCMV delayed treatment protocol, infected cell area in MRC-5; conditions: for pIC50: Human betaherpesvirus 5, MRC5, 120 h, 5 days of treatment
# [8] = system: Influenza A (strain A/California/07/2009)
# [9] = system: Hepatitis B virus (genotype D, subtype ayw); conditions: Hepatitis B/human PHH
# HCMV virions = system: HCMV virions; parameters: species or system human cytomegalovirus; conditions: 1 or 5 μM; 96 hours at 37°C
# [10] = Residual drug levels in MRC-5 cells and supernatant after washout, mass spectrometry; format: in vitro ADME, human
# Experimental: Supplemental Figure 8. […] (A) Uninfected cells
# After 24h, supernatant was collected, monolayers were washed 3x to remove drug and cells were replenished with drug-free media.
# Supernatants and cells were then assayed for residual drug levels at 2, 24 or 72h post-release. (B-C) Supernatant and cell-associated drug concentrations were determined by mass spectrometry. (D) […]
# monolayer of MRC-5 cells. Sampling of the supernatant was conducted after a 24h incubation at 37°C, followed by 3X washes with PBS, collection of the final wash, and replenishment of drug-free medium to the dishes. Supernatant samples were then collected at 24 and 72h post drug-removal. […]
# concentrations as determined by mass spectrometry. Mean +/- SD is shown (n=3).
# as §1
# [11] = 72 hours after drug removal, treated 24 h with 5 µM
smiles,measurement,setting,value
"Cc1cn(-c2ccc3c(c2)CN(c2ncc(Cc4ccc(-n5cccn5)cc4)s2)CC3)c(C)n1 [FLS-359, 7-(2,4-dimethyl-1H-imidazol-1-yl)-2-(5-{[4-(1H-pyrazol-1-yl)phenyl]methyl}-1,3-thiazol-2-yl)-1,2,3,4-tetrahydroisoquinoline]",c-Myc protein level,[1],dramatically reduced
same,pIC50,[2],6.52
same,CC50,[3],> 100 µM
same,virus production in gelfoam implants,HCMV TB40/E,significantly reduced virus production
same,pIC50,[4],6.25
same,pIC50,[5],5.42
same,pIC50,recombinant human SIRT1,< 4.00
same,pIC50,[6],5.32
same,pIC50,"[7]; read-out: IC50, infected cell area, drug added at 0 hpi, 0.1 IU/cell",6.05
same,pIC50,"[7]; read-out: IC50, infected cell area, drug added at 24 hpi",6.22
same,pIC50,"[7]; read-out: IC50, infected cell area, drug added at 48 hpi",6.10
same,pIC50,"[7]; read-out: IC50, infected cell area, drug added at 72 hpi",6.05
same,pIC50,"[7]; read-out: IC50, infected cell area, drug added at 96 hpi",6.05
same,Maximum Fold-Reduction in infected cell area,[7]; drug added at 0 hpi,11.6
same,Maximum Fold-Reduction in infected cell area,[7]; drug added at 24 hpi,33.4
same,Maximum Fold-Reduction in infected cell area,[7]; drug added at 48 hpi,21.2
same,Maximum Fold-Reduction in infected cell area,[7]; drug added at 72 hpi,17.6
same,Maximum Fold-Reduction in infected cell area,[7]; drug added at 96 hpi,21.8
same,SI CC50/IC50,[8]; Influenza A/human dNHBE,>83.3
same,"IC90, Influenza A (column headed IC50, footnote C: IC90)",[8]; human dNHBE,1.2^C μM
same,SI CC50/IC50,[9],>2.1
same,effect of incubating virus stock with drug on infectivity,HCMV virions,no significant effect on infectivity
same,removal of drug from culture dishes without cells,"[10]; 5 µM in medium, no cells",efficiently removed by washing
same,drug level in cells,[10]; [11],~ 5 μM
same,drug level in supernatant,[10]; [11],~ 0.4 μM

# — publication PMC10266789 (The Journal of Clinical Investigation, 2023)
